Measurements: patent publication US4001429A, “1-Cyclopropyl-1-phenyl-ω-amino-1-alkanols and 1-lower-alkylacyl derivatives as analgetics” (A. H. Robins Company, Incorporated, priority 1975, dated 1977)
Where a name gives a salt, the structure may show the parent alone.

Columns and labels:
[1] = system: depressant effects which are induced in mice by tetrabenazine; experiment: blocking the depressant effects induced in mice by intravenous tetrabenazine (modification of Englehardt et al.); assay type: in vivo; conditions: Mus musculus, IP
Experimental: The activity of the compounds was determined by their administration intraperitoneally to mice and their effectiveness in blocking the depressant effects which are induced in mice by the intravenous administration of 2-oxo-3-insobutyl-9,10-dimethoxy-1,2,3,4,6,7-hexahydro-11bh-benzo[a]quinolizine (tetrabenazine). The procedure used was a modification of Englehardt, E. L. et al, J. Med. Chem. 11 (2), 325(1968). The ED50 values of the compounds are given in Table I; the compounds of Examples 3, 5, 7 and 8 are the preferred compounds.

[2] = system: mice; experiment: analgesic activity in mice, modification of Nilsen's method; assay type: in vivo; conditions: Mus musculus, ip; administered intraperitoneally to mice; read-out: ED50 analgetic dose
Experimental: The analgesic activity of the 1-cyclopropyl-1-alkanoyloxy-1-phenyl-ω-amino alkane compounds of this invention were determined by a modification of Nilsen's method [Funderburk, W. H., et al, Arch. Int.

CCC(=O)OC(CCN(C)C)(c1ccccc1)C1CC1 (centres unmarked) [Example 10, 1-Cyclopropyl-3-dimethylamino-1phenyl-1-propionyloxypropane Hydrochloride]
ED50 [1]: 7.7 mg/kg
ED50 [2]: 14.2 mg/kg
